Experimental data: patent publication US20070212428A1, “METHODS AND COMPOSITIONS FOR TREATING MOOD DISORDER” (MOOD MANAGEMENT SCIENCES, INC., priority 2004, published 2007)
Counter-ions that a name gives are not always drawn. Like-named read-outs stand apart in the source and are kept apart here.

What was measured:
[1] = tested on: dopamine neuronal reuptake; conditions: cited from earlier work
[2] = tested on: GABA uptake or degradation; conditions: cited from earlier work
[3] = tested on: norepinephrine neuronal reuptake; conditions: cited from earlier work
GABAA or GABAB = conditions: cited from earlier work
[4] = cited from earlier work; for elimination half-life: plasma; for oral absorption (in words): oral administration; for time to peak plasma concentration: after oral dosing
monoamine oxidase = conditions: cited from earlier work
[5] = tested on: treatment resistant depression; assay: Example 11: case, treatment resistant depression; type: in vivo, human; conditions: under prior psychiatrist
histamine H1 receptor [6] = target: T1, histamine H1 receptor (Homo sapiens, UniProt P35367); conditions: cited from earlier work
[7] = tested on: serotonin 5-HT2 and 5-HT3 receptors; conditions: cited from earlier work
[8] = tested on: central presynaptic a2 adrenergic inhibitory autoreceptors and heteroreceptors; conditions: cited from earlier work
[9] = tested on: peripheral al adrenergic and muscarinic receptors; conditions: cited from earlier work
[10] = tested on: 5-HT1A and 5-HT1B receptors; conditions: cited from earlier work
serotonin reuptake site = serotonin reuptake site (Homo sapiens, UniProt P31645); conditions: cited from earlier work
[11] = tested on: cholinergic muscarinic receptors; conditions: cited from earlier work
[12] = cited from earlier work
[13] = target: serotonin 5-HT2A receptor (Homo sapiens, UniProt P28223); conditions: cited from earlier work
[14] = tested on: dopaminergic, adrenergic, cholinergic, or histaminergic receptors; conditions: in vitro; cited from earlier work
human plasma proteins = conditions: cited from earlier work
status epilepticus = conditions: add-on therapy with other anti-epileptic drugs; cited from earlier work
bipolar I patients = conditions: cited from earlier work
[15] = tested on: GABAA, BZD, and β adrenergic receptors; conditions: cited from earlier work
[16] = human, in vivo; cited from earlier work
anxiety and depression = conditions: human, in vivo; cited from earlier work
[17] = tested on: cholinergic, muscarinic, and benzodiazepine receptors; conditions: cited from earlier work
[18] = tested on: serotonin 5-HT1C, 5-HT1D and 5-HT1A receptors; conditions: cited from earlier work
[19] = tested on: dopamine D1 and haloperidol-sensitive sigma site; conditions: cited from earlier work
[20] = tested on: cholinergic muscarinic or β1 and β2 adrenergic receptors; conditions: cited from earlier work
[21] = tested on: treatment resistant depression; type: in vivo, human; conditions: 150 mg titrated up to 225 mg
[22] = tested on: histamine H1, serotonin 5HT1B, benzodiazepine, and chloride channel receptors; conditions: cited from earlier work
[23] = tested on: uptake of glutamate, or choline; conditions: cited from earlier work
[24] = tested on: neuronal serotonin reuptake; conditions: cited from earlier work
[25] = tested on: dopamine D1 and D2, muscarinic, serotonin 5HT1A, 5HT2, 5HT3, β-1 and 2 adrenergic, α-1 and α-2 adrenergic, histamine H2 and H3, adenosine A1 and A2, opiate μ …; conditions: cited from earlier work
[26] = tested on: D2, 5-HT2A, and 5-HT1D receptors; conditions: cited from earlier work
histamine H1 receptor [27] = target: T1, histamine H1 receptor; conditions: cited from earlier work; remark: listed apart in the source
5-HT1A receptor = 5-HT1A receptor (Homo sapiens, UniProt P08908); conditions: cited from earlier work
[28] = tested on: other receptor/binding sites tested, including the cholinergic muscarinic receptor; conditions: cited from earlier work
[29] = tested on: dopamine D2 and D3, serotonin 5-HT2A, 5-HT2C, 5-HT1D and α-adrenergic receptors; conditions: cited from earlier work
[30] = maintenance treatment over eighteen months
[31] = quetiapine fumarate (150 mg BID) and divalproex (500 mg BID)

T1 sequence (P35367 whole entry, species assumed): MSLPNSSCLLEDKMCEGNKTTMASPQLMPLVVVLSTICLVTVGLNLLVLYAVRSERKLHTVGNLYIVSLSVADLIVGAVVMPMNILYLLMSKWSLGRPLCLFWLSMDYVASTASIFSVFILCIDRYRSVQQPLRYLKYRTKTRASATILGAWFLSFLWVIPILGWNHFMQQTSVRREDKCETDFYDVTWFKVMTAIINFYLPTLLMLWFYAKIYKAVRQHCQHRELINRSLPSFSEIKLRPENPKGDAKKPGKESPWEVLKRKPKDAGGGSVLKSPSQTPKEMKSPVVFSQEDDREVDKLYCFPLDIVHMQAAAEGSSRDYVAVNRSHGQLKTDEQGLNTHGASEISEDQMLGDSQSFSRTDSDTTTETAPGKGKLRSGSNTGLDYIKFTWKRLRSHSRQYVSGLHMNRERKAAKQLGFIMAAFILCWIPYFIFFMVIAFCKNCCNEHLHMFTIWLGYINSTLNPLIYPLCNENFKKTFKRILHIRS
5-HT1A receptor, sequence (P08908 whole entry): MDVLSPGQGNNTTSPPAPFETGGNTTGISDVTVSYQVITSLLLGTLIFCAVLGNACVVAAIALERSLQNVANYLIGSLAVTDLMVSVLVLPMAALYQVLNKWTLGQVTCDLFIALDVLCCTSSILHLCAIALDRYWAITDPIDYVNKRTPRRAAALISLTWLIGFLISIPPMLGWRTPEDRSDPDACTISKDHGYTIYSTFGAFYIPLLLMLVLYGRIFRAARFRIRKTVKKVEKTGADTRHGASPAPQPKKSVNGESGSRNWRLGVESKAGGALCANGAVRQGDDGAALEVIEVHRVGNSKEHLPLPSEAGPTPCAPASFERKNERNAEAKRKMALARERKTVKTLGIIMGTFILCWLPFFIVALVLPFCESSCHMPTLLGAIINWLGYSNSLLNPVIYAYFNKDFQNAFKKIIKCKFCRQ
serotonin 5-HT2A receptor, sequence (P28223 whole entry): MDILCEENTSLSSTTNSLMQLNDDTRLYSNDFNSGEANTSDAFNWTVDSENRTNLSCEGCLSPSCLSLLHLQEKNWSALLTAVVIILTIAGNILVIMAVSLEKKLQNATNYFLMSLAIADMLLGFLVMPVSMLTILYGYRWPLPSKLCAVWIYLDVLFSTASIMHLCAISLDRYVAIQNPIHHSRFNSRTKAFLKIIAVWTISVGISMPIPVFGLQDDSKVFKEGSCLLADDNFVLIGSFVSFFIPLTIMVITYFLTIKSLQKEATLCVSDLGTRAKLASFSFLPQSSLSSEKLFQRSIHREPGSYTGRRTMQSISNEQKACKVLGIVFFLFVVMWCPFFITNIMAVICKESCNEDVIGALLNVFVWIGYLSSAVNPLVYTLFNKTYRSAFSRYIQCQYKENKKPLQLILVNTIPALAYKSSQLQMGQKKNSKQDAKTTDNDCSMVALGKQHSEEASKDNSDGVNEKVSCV
serotonin reuptake site, sequence (P31645 whole entry): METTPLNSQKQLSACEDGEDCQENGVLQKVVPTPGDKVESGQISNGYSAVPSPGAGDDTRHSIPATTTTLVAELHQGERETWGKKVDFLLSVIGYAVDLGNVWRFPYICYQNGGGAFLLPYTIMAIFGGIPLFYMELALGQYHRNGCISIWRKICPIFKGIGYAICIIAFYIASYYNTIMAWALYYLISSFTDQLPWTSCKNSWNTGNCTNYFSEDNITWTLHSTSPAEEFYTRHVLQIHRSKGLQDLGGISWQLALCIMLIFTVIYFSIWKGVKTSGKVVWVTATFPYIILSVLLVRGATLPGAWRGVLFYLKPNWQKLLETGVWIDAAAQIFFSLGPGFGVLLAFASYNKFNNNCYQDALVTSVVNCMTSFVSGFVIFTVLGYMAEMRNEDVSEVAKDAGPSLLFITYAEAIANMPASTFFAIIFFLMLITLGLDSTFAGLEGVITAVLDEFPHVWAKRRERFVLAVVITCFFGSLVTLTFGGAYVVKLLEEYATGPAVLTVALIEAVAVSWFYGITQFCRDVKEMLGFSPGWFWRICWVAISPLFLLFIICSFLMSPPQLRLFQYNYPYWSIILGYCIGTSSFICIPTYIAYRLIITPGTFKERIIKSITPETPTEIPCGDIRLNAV

## 1-(aminoethyl)cyclohexaneacetic acid [gabapentin]
[1]
  effect on dopamine reuptake (in words): does not alter
[2]
  inhibition of GABA uptake or degradation: not an inhibitor
[3]
  effect on norepinephrine reuptake (in words): does not alter
GABAA or GABAB
  effect on radioligand binding: does not modify

## CC(NC(C)(C)C)C(=O)c1cccc(Cl)c1.Cl (racemic) [bupropion, (±)-1-(3-chlorophenyl)-2-[(1,1-dimethylethyl)amino]-1-propanone hydrochloride]
[1]
  effect on dopamine reuptake (in words): relatively weak inhibitor
[4]
  elimination half-life: approximately 21 hours
[3]
  effect on norepinephrine reuptake (in words): relatively weak inhibitor
Monoamine oxidase
  inhibition of monoamine oxidase: does not inhibit
[5]
  symptomatic success in MDD, first episode: modest symptomatic success

## CN1CCN2c3ncccc3Cc3ccccc3C2C1 (racemic) [mirtazapine, 1,2,3,4,10,14b-hexahydro-2-mehtylpryazino [2.1-a] pyrido [2,3-c] benzazepine]
Histamine H1 receptor [6]
  functional activity: potent antagonist
[7]
  functional activity: potent antagonist
[8]
  functional activity: antagonist
[9]
  functional activity: moderate antagonist
[10]
  affinity: no significant affinity

## O=C1CCc2ccc(OCCCCN3CCN(c4cccc(Cl)c4Cl)CC3)cc2N1 [aripiprazole, 7-[4-[4-(2,3-dichlorophenyl)-1-piperazinyl]butoxy]-3,4-dihydrocarbostyril]
Serotonin reuptake site
  affinity: moderate affinity
[11]
  affinity: no appreciable affinity
[4]
  oral absorption (in words): well absorbed
[12]; lithium (1200-1800 mg/day) for 21 days with aripiprazole (30 mg/day)
  pharmacokinetics: did not result in clinically significant changes
[13]
  functional activity: antagonist

## CNCC[C@H](Oc1cccc2ccccc12)c1cccs1.Cl [duloxetine, (+)-(S)-N-methyl-γ-(1-naphthyloxy)-2-thiophenepropylamine hydrochloride]
Monoamine oxidase
  inhibition of monoamine oxidase: does not inhibit
[14]
  affinity: no significant affinity

## CN(C)CCC[C@@]1(c2ccc(F)cc2)OCc2cc(C#N)ccc21 [escitalopram, S-(+)-1-[3-(dimethylamino)propyl]-1-(p-fluorophenyl)-5-phthalancarbonitrile oxalate]
Human plasma proteins
  binding to human plasma proteins: approximately 56%
[1]
  effect on dopamine reuptake (in words): minimal effects
[4]
  time to peak plasma concentration: about 5 hours
  elimination half-life: 27 to 32 h
[4]; daily dosing
  time to steady state plasma concentrations: a week
[4]; elderly patients
  increase of half life in elderly patients: approximately 50%
[3]
  effect on norepinephrine reuptake (in words): minimal effects

## Nc1nnc(-c2cccc(Cl)c2Cl)c(N)n1 [lamotrigine, 3,5-diamino-6-(2,3-dichlorophenyl)-1,2,4-triazine]
Status epilepticus
  plasma concentration generally effective in controlling SE: about 24 μg/ml
Bipolar I patients; approximately 200 mg/day, ranging from 100 mg/day to 400 mg/day
  delay of time to occurrence of a mood episode: effective in delaying the time to occurrence of a mood episode
Bipolar I patients; [30]
  mood pole against which predominantly effective: predominantly effective against depression
  prevention of mood episodes compared with placebo: superior to placebo

## Cc1cc2c(s1)Nc1ccccc1N=C2N1CCN(C)CC1 [olanzapine, 2-methyl-4-(4-methyl-1-piperazinyl)-10H-thieno[2,3-b][1,5]benzodiazepine]
[15]
  binding: binds weakly

## NC(=O)N1c2ccccc2CC(=O)c2ccccc21 [oxcarbazepine, 10,11-dihydro-10-oxo-5H-dibenzo[b,f]azepine-5-carboxamide]
[4]
  elimination half-life: about 2 hours
[16]
  tolerability of dose: not be able to tolerate

## CNCCCC1c2ccccc2C=Cc2ccccc21.Cl [protriptyline, N-methyl-5H-dibenzo[a,d]-cycloheptene-5-propanamine hydrochloride]
Anxiety and depression
  time to clinical effect: one week
[4]; human, in vivo
  time to significant plasma levels: ≤ 2 h
[4]
  oral absorption (in words): well absorbed

## OCCOCCN1CCN(C2=Nc3ccccc3Sc3ccccc32)CC1 [quetiapine, 5-[2-(4-dibenzo[b,f][1,4]thiazepin-11-yl-1-piperazinyl)ethoxy]ethanol fumarate]
[4]
  time to peak plasma concentration: 1.5 h
  elimination half-life: about 6 hours
[4]; repeated dosing
  time to steady state plasma concentrations: two
[17]
  affinity: no appreciable affinity
[12]; [31]
  extent of absorption or mean oral clearance: without affecting
  increase of mean maximum plasma concentration at steady state: 17%
[12]; quetiapine fumarate (300 mg BID) with fluoxetine (60 mg once daily), haloperidol (7.5 mg BID) or risperidone (3 mg BID)
  steady-state pharmacokinetics: did not alter

## Cc1nc2n(c(=O)c1CCN1CCC(c3noc4cc(F)ccc34)CC1)CCCC2 [risperidone, 3-[2-[4-(6-fluoro-1,2-benzisoxazol-3-yl)piperidino]ethyl]-2-methyl-6,7,8,9-tetrahydro-4H-pyrido-[1,2-a]pyrimidin-4-one]
[18]
  affinity: low to moderate affinity
[19]
  affinity: weak affinity
[20]
  affinity: no affinity

## CN[C@H]1CC[C@@H](c2ccc(Cl)c(Cl)c2)c2ccccc21.Cl [sertraline, (1S-cis)-4-(3,4-dichlorophenyl)-1,2,3,4-tetrahydro-N-methyl-1-naphthylamine hydrochloride]
[1]
  effect on dopamine reuptake (in words): weak effects
[4]; elderly patients
  reduction of elimination in elderly patients: approximately 40%
[4]
  elimination half-life: about 26 hours
[3]
  effect on norepinephrine reuptake (in words): weak effects
[21]
  response of first episode of Treatment Resistant Depression: partial response

## Cc1ccsc1C(=CCCN1CCC[C@@H](C(=O)O)C1)c1sccc1C [tiagabine, (−)-®-1-[4,4-Bis(3-methyl-2-thienyl)-3-butenyl]nipecotic acid hydrochloride]
[22]
  binding: at concentrations greatly exceeding that is needed to inhibit the uptake of GABA
[1]
  effect on dopamine reuptake (in words): does not significantly inhibit
[4]
  time to peak plasma concentration: approximately 45 minutes
  oral absorption (in words): rapid
[4]; as metabolites
  fraction excreted in the feces: 63%
  fraction excreted renally: 25%
[4]; human, in vivo
  fraction excreted unchanged: 2%
[23]
  inhibition of uptake of glutamate or choline: does not significantly inhibit
[3]
  effect on norepinephrine reuptake (in words): does not significantly inhibit
[24]
  inhibition of serotonin reuptake (in words): does not significantly inhibit
[25]
  binding: little or no binding

## O=C1Cc2cc(CCN3CCN(c4nsc5ccccc45)CC3)c(Cl)cc2N1 [ziprasidone, 5-[2-[4-(1,2-benzoisothiazol-3-yl)-1-piperazinyl]ethyl]-6-chloro-1,3-dihydro-2H-indol-2-one]
[4]
  elimination half-life: about 7 hours
[4]; repeated dosing
  time to steady state plasma concentrations: one to three
[3]
  effect on norepinephrine reuptake (in words): inhibited
[26]
  functional activity: antagonist
Histamine H1 receptor [27]
  in vitro binding affinity: moderate affinity
5-HT1A receptor
  functional activity: agonist
[24]
  inhibition of serotonin reuptake (in words): inhibited
[28]
  affinity: No appreciable affinity
[29]
  in vitro binding affinity: high in vitro binding affinity
